Source: patent US11739074B2, “Ras inhibitors” (Revolution Medicines, Inc., priority 2019, dated 2023)
Where two headings read alike, the source gives them in different places.

Assays:
[1] = target: KRAS G12V (Homo sapiens, UniProt P01116+P62937, G12V); test: Ras-Raf disruption/FRET/MOA assay, KRAS G12V; assay type: biochemical
Excerpt: (§1) Disruption of B-Raf Ras-Binding Domain (BRAF^RBD) Interaction with K-Ras by Compounds of the Invention (Also Called a FRET Assay or an MOA Assay)
(§2) Note—The following protocol describes a procedure for monitoring disruption of K-Ras G12C (GMP-PNP) binding to BRAF^RBD by a compound of the invention. This protocol may also be executed substituting other Ras proteins or nucleotides, such as K-Ras G12D and K-Ras G13D.
(§3) The purpose of this biochemical assay was to measure the ability of test compounds to facilitate ternary complex formation between a nucleotide-loaded K-Ras isoform and Cyclophilin A; the resulting ternary complex disrupts binding to a BRAF^RBD construct, inhibiting K-Ras signaling through a RAF effector.
(§4) In assay buffer containing 25 mM HEPES pH 7.3, 0.002% Tween20, 0.1% BSA, 100 mM NaCl and 5 mM MgCl2, tagless Cyclophilin A, His6-K-Ras-GMPPNP, and GST-BRAF^RBD were combined in a 384-well assay plate at final concentrations of 25 μM, 12.5 nM, and 50 nM, respectively. Compound was present in plate wells as a 10-point 3-fold dilution series starting at a final concentration of 30 μM. After incubation at 25° C. for 3 hours, a mixture of anti-His Eu-W1024 and anti-GST allophycocyanin was then added to assay sample wells at final concentrations of 10 nM and 50 nM, respectively, and the reaction incubated for an additional 1.5 hours. […] Compounds that facilitate disruption of a K-Ras:RAF complex were identified as those eliciting a decrease in the TR-FRET ratio relative to DMSO control wells.

[2] = target: KRAS WT (Homo sapiens, UniProt P01116+P62937); test: Ras-Raf disruption/FRET/MOA assay, KRAS WT; assay type: biochemical
Excerpt: as §1, §2, §3, §4

[3] = target: T1, NRAS G12C (Homo sapiens, UniProt P01111+P62937, G12C); test: Ras-Raf disruption/FRET/MOA assay, NRAS G12C; assay type: biochemical
T1 construct: His6
Excerpt: as §1, §2, §3, §4

[4] = target: KRAS G12D (Homo sapiens, UniProt P01116+P62937, G12D); test: Ras-Raf disruption/FRET/MOA assay, KRAS G12D; assay type: biochemical
Excerpt: as §1, §2, §3, §4

[5] = target: KRAS G12C (Homo sapiens, UniProt P01116+P62937, G12C); test: Ras-Raf disruption/FRET/MOA assay, KRAS G12C; assay type: biochemical; settings: disruption of BRAF RBD binding, with Cyclophilin A; read-out: KRAS G12C FRET IC50
Excerpt: as §1, §2, §3, §4

[6] = target: KRAS G13C (Homo sapiens, UniProt P01116+P62937, G13C); test: Ras-Raf disruption/FRET/MOA assay, KRAS G13C; assay type: biochemical
Excerpt: as §1, §2, §3, §4

[7] = system: AsPC-1 (K-Ras G12D); test: CellTiter-Glo cell viability assay, AsPC-1; assay type: cell-based; settings: Homo sapiens, ASPC1, 120 h, read-out: AsPC-1 Cell Viability IC50
Summary of the method: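 Compounds dispensed directly onto seeded AsPC-1 (K-Ras G12D) or NCI-H358 (K-Ras G12C) cells; CellTiter-Glo luminescence read on day 5 after ~30 min equilibration to room temperature. Signal normalized to DMSO average (%) and fit by four-parameter logistic.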

[8] = target: KRAS G13D (Homo sapiens, UniProt P01116+P62937, G13D); test: Ras-Raf disruption/FRET/MOA assay, KRAS G13D; assay type: biochemical
Excerpt: as §1, §2, §3, §4

[9] = target: KRAS G12S (Homo sapiens, UniProt P01116+P62937, G12S); test: Ras-Raf disruption/FRET/MOA assay, KRAS G12S; assay type: biochemical
Excerpt: as §1, §2, §3, §4

[10] = system: AsPC-1 (K-Ras G12D); test: Potency assay: pERK in AsPC-1 cells; assay type: cell-based; settings: Homo sapiens
[11] = disruption of BRAF RBD binding, with Cyclophilin A, read-out: KRAS G12V FRET IC50
[12] = disruption of BRAF RBD binding, with Cyclophilin A, read-out: KRAS WT FRET IC50
[13] = NRAS G12C, read-out: NRAS G12C FRET data IC50
[14] = disruption of BRAF RBD binding, with Cyclophilin A, read-out: KRAS G12D FRET IC50
[15] = disruption of BRAF RBD binding, with Cyclophilin A, read-out: KRAS G13C FRET IC50
[16] = AsPC-1, K-Ras G12D, 5-day treatment
[17] = disruption of BRAF RBD binding, with Cyclophilin A, read-out: KRAS G13D FRET IC50
[18] = disruption of BRAF RBD binding, with Cyclophilin A, read-out: KRAS G12S FRET IC50
[19] = ASPC1, read-out: pERK EC50 (AsPC-1 KRAS G12D)

KRAS WT, sequence (P01116 1-169 isoform P01116-2 limits assumed): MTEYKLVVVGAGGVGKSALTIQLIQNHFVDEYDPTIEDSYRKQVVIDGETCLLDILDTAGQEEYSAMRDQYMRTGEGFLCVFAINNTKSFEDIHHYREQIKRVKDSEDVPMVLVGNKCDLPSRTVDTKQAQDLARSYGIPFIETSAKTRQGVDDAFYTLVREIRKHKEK
KRAS WT, sequence (P62937 whole entry): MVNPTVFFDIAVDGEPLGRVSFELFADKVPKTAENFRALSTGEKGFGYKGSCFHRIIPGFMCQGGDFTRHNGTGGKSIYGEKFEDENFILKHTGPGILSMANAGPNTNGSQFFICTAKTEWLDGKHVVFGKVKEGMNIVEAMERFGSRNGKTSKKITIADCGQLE
KRAS G12S, sequence (P01116 1-169 isoform P01116-2 G12S limits assumed): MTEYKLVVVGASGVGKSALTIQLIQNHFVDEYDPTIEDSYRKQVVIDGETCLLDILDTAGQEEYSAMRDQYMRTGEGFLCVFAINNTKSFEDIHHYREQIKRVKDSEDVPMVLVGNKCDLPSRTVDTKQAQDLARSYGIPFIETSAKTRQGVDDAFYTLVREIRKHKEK
KRAS G12S, sequence (P62937 whole entry): as the sequence (P62937 whole entry) above
KRAS G13D, sequence (P01116 1-169 isoform P01116-2 G13D limits assumed): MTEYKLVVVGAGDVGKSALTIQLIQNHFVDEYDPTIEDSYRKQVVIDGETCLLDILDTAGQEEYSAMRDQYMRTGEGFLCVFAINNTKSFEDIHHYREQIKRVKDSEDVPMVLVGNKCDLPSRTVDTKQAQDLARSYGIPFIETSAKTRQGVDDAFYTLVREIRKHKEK
KRAS G13D, sequence (P62937 whole entry): as the sequence (P62937 whole entry) above
KRAS G12D, sequence (P01116 1-169 isoform P01116-2 G12D limits assumed): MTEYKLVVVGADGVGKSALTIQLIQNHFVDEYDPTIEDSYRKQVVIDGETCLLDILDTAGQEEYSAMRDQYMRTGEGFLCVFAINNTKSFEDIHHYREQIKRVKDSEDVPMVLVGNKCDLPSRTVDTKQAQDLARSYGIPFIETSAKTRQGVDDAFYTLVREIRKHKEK
KRAS G12D, sequence (P62937 whole entry): as the sequence (P62937 whole entry) above
T1 sequence (P01111 whole entry G12C): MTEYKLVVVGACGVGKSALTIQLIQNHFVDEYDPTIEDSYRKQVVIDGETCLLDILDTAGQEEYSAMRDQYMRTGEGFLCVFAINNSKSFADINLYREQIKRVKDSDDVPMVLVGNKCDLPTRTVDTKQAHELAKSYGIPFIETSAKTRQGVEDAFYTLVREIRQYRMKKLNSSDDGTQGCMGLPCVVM
T1 sequence (P62937 whole entry): as the sequence (P62937 whole entry) above
KRAS G13C, sequence (P01116 1-169 isoform P01116-2 G13C limits assumed): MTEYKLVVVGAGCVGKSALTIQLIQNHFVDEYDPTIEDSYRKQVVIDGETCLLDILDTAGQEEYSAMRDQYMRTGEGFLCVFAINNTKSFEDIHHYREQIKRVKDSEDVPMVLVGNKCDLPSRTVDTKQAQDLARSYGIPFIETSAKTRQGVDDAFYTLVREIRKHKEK
KRAS G13C, sequence (P62937 whole entry): as the sequence (P62937 whole entry) above
KRAS G12C, sequence (P01116 1-169 isoform P01116-2 G12C limits assumed): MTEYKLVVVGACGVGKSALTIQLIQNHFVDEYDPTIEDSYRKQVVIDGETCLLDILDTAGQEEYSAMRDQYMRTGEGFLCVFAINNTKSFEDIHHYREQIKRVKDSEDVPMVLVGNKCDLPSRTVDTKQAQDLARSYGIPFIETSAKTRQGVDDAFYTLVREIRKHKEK
KRAS G12C, sequence (P62937 whole entry): as the sequence (P62937 whole entry) above
KRAS G12V, sequence (P01116 1-169 isoform P01116-2 G12V limits assumed): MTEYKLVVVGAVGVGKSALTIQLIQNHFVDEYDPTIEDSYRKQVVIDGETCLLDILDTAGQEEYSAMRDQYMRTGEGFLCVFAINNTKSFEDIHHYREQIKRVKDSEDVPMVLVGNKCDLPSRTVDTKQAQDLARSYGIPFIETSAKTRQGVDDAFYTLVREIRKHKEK
KRAS G12V, sequence (P62937 whole entry, the tested form may be a part): as the sequence (P62937 whole entry) above

SMILES: CCn1c(-c2cccnc2[C@H](C)OC)c2c3cc(ccc31)-c1cc(O)cc(c1)C[C@H](NC(=O)[C@H](C(C)C)N(C)C(=O)N1CCN(C(=O)[C@@H]3CN3)CC1)C(=O)N1CCC[C@H](N1)C(=O)OCC(C)(C)C2 (atropisomer, axis not shown) [Compound 197]
- IC50 [1, 11]: 10 to 100 nM
- IC50 [2, 12]: 10 to 100 nM
- IC50 [3, 13]: 10 to 100 nM
- IC50 [4, 14]: 100 to 1000 nM
- IC50 [5]: 10 to 100 nM
- IC50 [6, 15]: 10 to 100 nM
- IC50 [7, 16]: 1000 to 10000 nM
- IC50 [8, 17]: 10 to 100 nM
- IC50 [9, 18]: 10 to 100 nM

SMILES: CCn1c(-c2cccnc2[C@H](C)OC)c2c3cc(ccc31)-c1cc(O)cc(c1)C[C@H](NC(=O)[C@H](C(C)C)N1CC[C@@]3(CCN(C[C@H]4CN4)C3)C1=O)C(=O)N1CCC[C@H](N1)C(=O)OCC(C)(C)C2 (single isomer, unassigned) [Example 139]
- IC50 [1, 11]: 10 to 100 nM
- IC50 [2, 12]: 10 to 100 nM
- IC50 [3, 13]: < 10 nM
- IC50 [4, 14]: 10 to 100 nM
- IC50 [5]: < 10 nM
- IC50 [6, 15]: < 10 nM
- IC50 [7, 16]: 1000 to 10000 nM
- IC50 [8, 17]: 10 to 100 nM
- EC50 ([10]; ASPC1, AsPC-1 cells, K-Ras G12D, read-out: pERK EC50 (AsPC-1 KRAS G12D)): < 5000 nM
- IC50 [9, 18]: 10 to 100 nM

SMILES: CCn1c(-c2cnccc2COC)c2c3cc(ccc31)-c1cc(O)cc(c1)C[C@H](NC(=O)[C@H](C(C)C)N(C)C(=O)CN(C)C(=O)C1CN1)C(=O)N1CCC[C@H](N1)C(=O)OCC(C)(C)C2 (stereo partly drawn) [Compound 33]
- IC50 [1]: 100 to 1000 nM
- IC50 [2]: 100 to 1000 nM
- IC50 ([3]; NRAS G12C FRET data IC50, NRAS G12C): 10 to 100 nM
- IC50 [4]: 100 to 1000 nM
- IC50 [6]: 100 to 1000 nM
- IC50 [8]: 100 to 1000 nM
- EC50 [10, 19]: < 5000 nM
- IC50 [9]: 10 to 100 nM

SMILES: CCn1c(-c2cnccc2COC)c2c3cc(ccc31)-c1cc(O)cc(c1)C[C@H](NC(=O)[C@H](C(C)C)N(C)C(=O)CN(C)C(=O)[C@@H]1CN1C(C)=O)C(=O)N1CCC[C@H](N1)C(=O)OCC(C)(C)C2 [Compound 35]
- IC50 [1, 11]: 100 to 1000 nM
- IC50 [2, 12]: 10 to 100 nM
- IC50 [3, 13]: 10 to 100 nM
- IC50 [4, 14]: 100 to 1000 nM
- IC50 [5]: 10 to 100 nM
- IC50 [6, 15]: 10 to 100 nM
- IC50 [7]: 1000 to 10000 nM
- IC50 [8, 17]: 100 to 1000 nM
- EC50 [10, 19]: < 5000 nM
- IC50 [9, 18]: 10 to 100 nM

SMILES: CCn1c(-c2cnccc2COC)c2c3cc(ccc31)-c1cc(O)cc(c1)C[C@H](NC(=O)[C@H](C(C)C)N(C)C(=O)CN(C)C(=O)[C@@H]1CN1C(=O)OC)C(=O)N1CCC[C@H](N1)C(=O)OCC(C)(C)C2 [Compound 39]
- IC50 [1, 11]: 100 to 1000 nM
- IC50 [2, 12]: 100 to 1000 nM
- IC50 [3, 13]: 10 to 100 nM
- IC50 [4, 14]: 100 to 1000 nM
- IC50 [5]: 10 to 100 nM
- IC50 [6, 15]: 10 to 100 nM
- IC50 [7]: 1000 to 10000 nM
- IC50 [8, 17]: 100 to 1000 nM
- EC50 [10, 19]: < 5000 nM
- IC50 [9, 18]: 10 to 100 nM

SMILES: CCn1c(-c2cnccc2COC)c2c3cc(ccc31)-c1cc(O)cc(c1)C[C@H](NC(=O)[C@H](C(C)C)N(C)C(=O)CN(C)C(=O)[C@H]1[C@@H](C)N1[S@+]([O-])C(C)(C)C)C(=O)N1CCC[C@H](N1)C(=O)OCC(C)(C)C2 (stereo partly drawn) [Compound 53]
- IC50 [1, 11]: 100 to 1000 nM
- IC50 [2, 12]: 10 to 100 nM
- IC50 [3, 13]: 10 to 100 nM
- IC50 [4, 14]: 100 to 1000 nM
- IC50 [5]: 10 to 100 nM
- IC50 [6, 15]: 10 to 100 nM
- IC50 [7]: 1000 to 10000 nM
- IC50 [8, 17]: 100 to 1000 nM
- EC50 [10, 19]: < 5000 nM
- IC50 [9, 18]: 10 to 100 nM
